In this assay the test system is P388. Nature of the assay: Cytotoxicity against mouse P388 cells assessed as cell viability after 92 hrs by XTT assay. The format is functional, cell-based. Conditions: P388, 92 h.

pIC50: −log10 of the molar value. Some results are limits rather than exact numbers.

In general, pIC50 refers to the negative decadic logarithm of the IC50, by convention in mol/L. As for `CC[C@H](C)[C@H](NC(=O)[C@@H](CC(=O)NC)NC(=O)CNC(=O)[C@H](NC(=O)[C@@H](NC(=O)[C@@H](CC(=O)NC)NC(=O)[C@@H](NC(=O)[C@@H](CC(=O)NC)NC(=O)CNC(=O)CNC(=O)[C@H](C)NC(=O)[C@H](NC(=O)[C@H](CCC(=O)NC)NC(=O)[C@@H](CC(=O)NC)NC(=O)[C@@H](NC(=O)CNC(=O)[C@H](C)NC(=O)CNC(=O)[C@@H](NC(=O)[C@H](N)CC(=O)NC)C(C)(C)O)C(C)(C)C)C(C)(C)O)[C@@H](C)CC)C(C)(C)C)C(C)(C)O)C(=O)N[C@H](CC(=O)NC)C(=O)N[C@H](C(=O)N[C@H](CC(=O)NC)C(=O)N[C@@H](C)C(=O)N[C@H](CC(=O)NC)C(=O)N[C@H](C(=O)N[C@H](CO)C(=O)N[C@H](C(=O)N[C@H](CC(N)=O)C(=O)N[C@@H](Cc1cn(CCNS(=O)(=O)c2cccc3c(N(C)C)cccc23)nn1)C(=O)N[C@H](CC(N)=O)C(=O)N[C@@H](CCC(N)=O)C(=O)N[C@@H](C(=O)N[C@H](C(=O)O)[C@@H](C)O)[C@H](C)O)C(C)C)C(C)C)C(C)C`, the pIC50 is below 6.38. As for `CC[C@H](C)[C@H](NC(=O)[C@@H](CC(=O)NC)NC(=O)CNC(=O)[C@H](NC(=O)[C@@H](NC(=O)[C@@H](CC(=O)NC)NC(=O)[C@@H](NC(=O)[C@@H](CC(=O)NC)NC(=O)CNC(=O)CNC(=O)[C@H](C)NC(=O)[C@H](NC(=O)[C@H](CCC(=O)NC)NC(=O)[C@@H](CC(=O)NC)NC(=O)[C@@H](NC(=O)CNC(=O)[C@H](C)NC(=O)CNC(=O)[C@@H](NC(=O)[C@@H](CC(=O)NC)NC(=O)[C@H](C)N)C(C)(C)O)C(C)(C)C)C(C)(C)O)[C@@H](C)CC)C(C)(C)C)C(C)(C)O)C(=O)N[C@H](CC(=O)NC)C(=O)N[C@H](C(=O)N[C@H](CC(=O)NC)C(=O)N[C@@H](C)C(=O)N[C@H](CC(=O)NC)C(=O)N[C@H](C(=O)N[C@H](CO)C(=O)N[C@H](C(=O)N[C@H](CC(N)=O)C(=O)N[C@@H](Cc1cn(CCNS(=O)(=O)c2cccc3c(N(C)C)cccc23)nn1)C(=O)N[C@H](CC(N)=O)C(=O)N[C@@H](CCC(N)=O)C(=O)N[C@@H](C(=O)N[C@H](C(=O)O)[C@@H](C)O)[C@H](C)O)C(C)C)C(C)C)C(C)C`, the figure is 7.00. For `CC[C@H](C)[C@H](NC(=O)[C@@H](CC(=O)NC)NC(=O)CNC(=O)[C@H](NC(=O)[C@@H](NC(=O)[C@@H](CC(=O)NC)NC(=O)[C@@H](NC(=O)[C@@H](CC(=O)NC)NC(=O)CNC(=O)CNC(=O)[C@H](C)NC(=O)[C@H](NC(=O)[C@H](CCC(=O)NC)NC(=O)[C@@H](CC(=O)NC)NC(=O)[C@@H](NC(=O)CN)C(C)(C)C)C(C)(C)O)[C@@H](C)CC)C(C)(C)C)C(C)(C)O)C(=O)N[C@H](CC(=O)NC)C(=O)N[C@H](C(=O)N[C@H](CC(=O)NC)C(=O)N[C@@H](C)C(=O)N[C@H](CC(=O)NC)C(=O)N[C@H](C(=O)N[C@H](CO)C(=O)N[C@H](C(=O)N[C@H](CC(N)=O)C(=O)N[C@@H](Cc1cn(CCNS(=O)(=O)c2cccc3c(N(C)C)cccc23)nn1)C(=O)N[C@H](CC(N)=O)C(=O)N[C@@H](CCC(N)=O)C(=O)N[C@@H](C(=O)N[C@H](C(=O)O)[C@@H](C)O)[C@H](C)O)C(C)C)C(C)C)C(C)C`, the pIC50 was below 6.39. In the case of `CC[C@H](C)[C@H](NC(=O)[C@@H](CC(=O)NC)NC(=O)CNC(=O)[C@H](NC(=O)[C@@H](NC(=O)[C@@H](CC(=O)NC)NC(=O)[C@@H](NC(=O)[C@@H](CC(=O)NC)NC(=O)CNC(=O)CNC(=O)[C@H](C)NC(=O)[C@H](NC(=O)[C@@H](N)CCC(=O)NC)C(C)(C)O)[C@@H](C)CC)C(C)(C)C)C(C)(C)O)C(=O)N[C@H](CC(=O)NC)C(=O)N[C@H](C(=O)N[C@H](CC(=O)NC)C(=O)N[C@@H](C)C(=O)N[C@H](CC(=O)NC)C(=O)N[C@H](C(=O)N[C@H](CO)C(=O)N[C@H](C(=O)N[C@H](CC(N)=O)C(=O)N[C@@H](Cc1cn(CCNS(=O)(=O)c2cccc3c(N(C)C)cccc23)nn1)C(=O)N[C@H](CC(N)=O)C(=O)N[C@@H](CCC(N)=O)C(=O)N[C@@H](C(=O)N[C@H](C(=O)O)[C@@H](C)O)[C@H](C)O)C(C)C)C(C)C)C(C)C`, the pIC50 is below 6.38.

`CC[C@H](C)[C@H](NC(=O)[C@@H](CC(=O)NC)NC(=O)CNC(=O)[C@H](NC(=O)[C@@H](NC(=O)[C@@H](CC(=O)NC)NC(=O)[C@@H](NC(=O)[C@@H](CC(=O)NC)NC(=O)CNC(=O)CNC(=O)[C@H](C)NC(=O)[C@H](NC(=O)[C@H](CCC(=O)NC)NC(=O)[C@@H](CC(=O)NC)NC(=O)[C@@H](NC(=O)CNC(=O)[C@H](C)NC(=O)CNC(=O)[C@@H](NC(=O)[C@@H](CC(=O)NC)NC(=O)[C@H](C)NC(=O)[C@H](N)C(C)(C)C)C(C)(C)O)C(C)(C)C)C(C)(C)O)[C@@H](C)CC)C(C)(C)C)C(C)(C)O)C(=O)N[C@H](CC(=O)NC)C(=O)N[C@H](C(=O)N[C@H](CC(=O)NC)C(=O)N[C@@H](C)C(=O)N[C@H](CC(=O)NC)C(=O)N[C@H](C(=O)N[C@H](CO)C(=O)N[C@H](C(=O)N[C@H](CC(N)=O)C(=O)N[C@@H](Cc1cn(CCNS(=O)(=O)c2cccc3c(N(C)C)cccc23)nn1)C(=O)N[C@H](CC(N)=O)C(=O)N[C@@H](CCC(N)=O)C(=O)N[C@@H](C(=O)N[C@H](C(=O)O)[C@@H](C)O)[C@H](C)O)C(C)C)C(C)C)C(C)C`: the pIC50 is 7.09. Consider `CC[C@H](C)[C@H](NC(=O)[C@@H](CC(=O)NC)NC(=O)CNC(=O)[C@H](NC(=O)[C@@H](NC(=O)[C@@H](CC(=O)NC)NC(=O)[C@@H](NC(=O)[C@@H](CC(=O)NC)NC(=O)CNC(=O)CNC(=O)[C@H](C)NC(=O)[C@H](NC(=O)[C@H](CCC(=O)NC)NC(=O)[C@@H](CC(=O)NC)NC(=O)[C@@H](NC(=O)CNC(=O)[C@H](C)NC(=O)CNC(=O)[C@@H](NC(=O)[C@@H](CC(=O)NC)NC(=O)[C@H](C)NC(=O)[C@H](NC(=O)[C@H](C)NC(=O)CNC(=O)[C@H](C)N)C(C)(C)C)C(C)(C)O)C(C)(C)C)C(C)(C)O)[C@@H](C)CC)C(C)(C)C)C(C)(C)O)C(=O)N[C@H](CC(=O)NC)C(=O)N[C@H](C(=O)N[C@H](CC(=O)NC)C(=O)N[C@@H](C)C(=O)N[C@H](CC(=O)NC)C(=O)N[C@H](C(=O)N[C@H](CO)C(=O)N[C@H](C(=O)N[C@H](CC(N)=O)C(=O)N[C@@H](Cc1cn(CCNS(=O)(=O)c2cccc3c(N(C)C)cccc23)nn1)C(=O)N[C@H](CC(N)=O)C(=O)N[C@@H](CCC(N)=O)C(=O)N[C@@H](C(=O)N[C@H](C(=O)O)[C@@H](C)O)[C@H](C)O)C(C)C)C(C)C)C(C)C`, for which the pIC50 was below 6.38. As for `CC[C@H](C)[C@H](NC(=O)[C@@H](CC(=O)NC)NC(=O)CNC(=O)[C@H](NC(=O)[C@@H](NC(=O)[C@@H](CC(=O)NC)NC(=O)[C@@H](NC(=O)[C@@H](CC(=O)NC)NC(=O)CNC(=O)CNC(=O)[C@H](C)NC(=O)[C@H](NC(=O)[C@H](CCC(=O)NC)NC(=O)[C@@H](CC(=O)NC)NC(=O)[C@@H](NC(=O)CNC(=O)[C@H](C)NC(=O)CNC(=O)[C@@H](NC(=O)[C@@H](CC(=O)NC)NC(=O)[C@H](C)NC(=O)[C@H](NC(=O)[C@H](C)NC(=O)CN)C(C)(C)C)C(C)(C)O)C(C)(C)C)C(C)(C)O)[C@@H](C)CC)C(C)(C)C)C(C)(C)O)C(=O)N[C@H](CC(=O)NC)C(=O)N[C@H](C(=O)N[C@H](CC(=O)NC)C(=O)N[C@@H](C)C(=O)N[C@H](CC(=O)NC)C(=O)N[C@H](C(=O)N[C@H](CO)C(=O)N[C@H](C(=O)N[C@H](CC(N)=O)C(=O)N[C@@H](Cc1cn(CCNS(=O)(=O)c2cccc3c(N(C)C)cccc23)nn1)C(=O)N[C@H](CC(N)=O)C(=O)N[C@@H](CCC(N)=O)C(=O)N[C@@H](C(=O)N[C@H](C(=O)O)[C@@H](C)O)[C@H](C)O)C(C)C)C(C)C)C(C)C`, the figure is below 6.38; as for `CC[C@H](C)[C@H](NC(=O)[C@@H](CC(=O)NC)NC(=O)CNC(=O)[C@H](NC(=O)[C@@H](NC(=O)[C@@H](CC(=O)NC)NC(=O)[C@@H](NC(=O)[C@@H](CC(=O)NC)NC(=O)CNC(=O)CNC(=O)[C@H](C)NC(=O)[C@H](NC(=O)[C@H](CCC(=O)NC)NC(=O)[C@@H](CC(=O)NC)NC(=O)[C@@H](NC(=O)CNC(=O)[C@H](C)NC(=O)CN)C(C)(C)C)C(C)(C)O)[C@@H](C)CC)C(C)(C)C)C(C)(C)O)C(=O)N[C@H](CC(=O)NC)C(=O)N[C@H](C(=O)N[C@H](CC(=O)NC)C(=O)N[C@@H](C)C(=O)N[C@H](CC(=O)NC)C(=O)N[C@H](C(=O)N[C@H](CO)C(=O)N[C@H](C(=O)N[C@H](CC(N)=O)C(=O)N[C@@H](Cc1cn(CCNS(=O)(=O)c2cccc3c(N(C)C)cccc23)nn1)C(=O)N[C@H](CC(N)=O)C(=O)N[C@@H](CCC(N)=O)C(=O)N[C@@H](C(=O)N[C@H](C(=O)O)[C@@H](C)O)[C@H](C)O)C(C)C)C(C)C)C(C)C`, below 6.35. With `CC[C@H](C)[C@H](NC(=O)[C@@H](CC(=O)NC)NC(=O)CNC(=O)[C@H](NC(=O)[C@@H](NC(=O)[C@@H](CC(=O)NC)NC(=O)[C@@H](NC(=O)[C@@H](CC(=O)NC)NC(=O)CNC(=O)CNC(=O)[C@H](C)NC(=O)[C@H](NC(=O)[C@H](CCC(=O)NC)NC(=O)[C@@H](CC(=O)NC)NC(=O)[C@@H](NC(=O)CNC(=O)[C@H](C)NC(=O)CNC(=O)[C@@H](N)C(C)(C)O)C(C)(C)C)C(C)(C)O)[C@@H](C)CC)C(C)(C)C)C(C)(C)O)C(=O)N[C@H](CC(=O)NC)C(=O)N[C@H](C(=O)N[C@H](CC(=O)NC)C(=O)N[C@@H](C)C(=O)N[C@H](CC(=O)NC)C(=O)N[C@H](C(=O)N[C@H](CO)C(=O)N[C@H](C(=O)N[C@H](CC(N)=O)C(=O)N[C@@H](Cc1cn(CCNS(=O)(=O)c2cccc3c(N(C)C)cccc23)nn1)C(=O)N[C@H](CC(N)=O)C(=O)N[C@@H](CCC(N)=O)C(=O)N[C@@H](C(=O)N[C@H](C(=O)O)[C@@H](C)O)[C@H](C)O)C(C)C)C(C)C)C(C)C` the figure was 6.85; with `CC[C@H](C)[C@H](NC(=O)[C@@H](CC(=O)NC)NC(=O)CNC(=O)[C@H](NC(=O)[C@@H](NC(=O)[C@@H](CC(=O)NC)NC(=O)[C@@H](NC(=O)[C@@H](CC(=O)NC)NC(=O)CNC(=O)CNC(=O)[C@H](C)NC(=O)[C@H](NC(=O)[C@H](CCC(=O)NC)NC(=O)[C@@H](CC(=O)NC)NC(=O)[C@@H](NC(=O)CNC(=O)[C@H](C)N)C(C)(C)C)C(C)(C)O)[C@@H](C)CC)C(C)(C)C)C(C)(C)O)C(=O)N[C@H](CC(=O)NC)C(=O)N[C@H](C(=O)N[C@H](CC(=O)NC)C(=O)N[C@@H](C)C(=O)N[C@H](CC(=O)NC)C(=O)N[C@H](C(=O)N[C@H](CO)C(=O)N[C@H](C(=O)N[C@H](CC(N)=O)C(=O)N[C@@H](Cc1cn(CCNS(=O)(=O)c2cccc3c(N(C)C)cccc23)nn1)C(=O)N[C@H](CC(N)=O)C(=O)N[C@@H](CCC(N)=O)C(=O)N[C@@H](C(=O)N[C@H](C(=O)O)[C@@H](C)O)[C@H](C)O)C(C)C)C(C)C)C(C)C`, 6.72.

These data come from ChEMBL document CHEMBL2321750, “Structural permutation of potent cytotoxin, polytheonamide B: discovery of cytotoxic Peptide with altered activity” (ACS Med Chem Lett, 2013).
